Laboratory results from PubChem BioAssay AID256 (DTP/NCI, 2004).
Values joined by “and” are separate entries in the source; they are usually repeats but may differ in a detail not shown here. Identical values can stand only once. Toxic doses and inconclusive results are not listed. How the source made its calls: active means survival T/C of 150% or more; inactive means T/C below 125% in these data. Starred links: 1 amine or outer side, 2 acyl side, 3 side chain; linkers in the order of their positions; H or OH if unused. Non-standard residues stand in square brackets, D forms with d. Residues, ends and D or L forms follow the SMILES beside them. *: point of attachment. X2 = CCC(=O)CC1CC(C)CC(C(=O)[*:2])N1[*:1]; X1 = CCCCCCCCC(C)C(=O)*; Aib = CC(C)(N)C(=O)O; X3 = CC(CN(C)CCO)N*

Tested on: CD2F1 mice, L1210 leukemia ip, survival T/C
Experiment: NCI In Vivo Anticancer Drug Screen. Data for tumor model L1210 Leukemia (intraperitoneal) in CD2F1 (CDF1) mice
Conditions: higher = longer survival
In short: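 Activity against a transplanted murine tumor was judged by comparing the compound group with a vehicle group. The outcome in the treated animals was divided by that in the controls.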

[1] = endpoint: mean survival time, dose: 100.0 mg/kg/injection, schedule: Q04DX003 (ip), vehicle: saline with Tween-80
[2] = endpoint: mean survival time, dose: 200.0 mg/kg/injection, schedule: Q04DX003 (ip), vehicle: saline with Tween-80
[3] = endpoint: mean survival time, dose: 400.0 mg/kg/injection, schedule: Q04DX003 (ip), vehicle: saline with Tween-80
[4] = endpoint: mean survival time, dose: 100.0 mg/kg/injection, schedule: Q01DX009 (ip), vehicle: saline with Tween-80
[5] = endpoint: mean survival time, dose: 200.0 mg/kg/injection, schedule: Q01DX009 (ip), vehicle: saline with Tween-80

Measured: T/C

CC(C)C(=O)/C=C/c1ccccc1
inactive: [1] 102 % of control | [2] 103 % of control | [3] 102 % of control

CNc1ccc(C(=O)O)cc1OC
inactive: [1] 100 % of control | [2] 100 % of control | [3] 103 % of control

CCCCCCOS(=O)OCC(Cl)COC (configuration not stated)
inactive: [4] 97 % of control | [5] 94 % of control

CN(C)C(=O)Nc1cccc(OS(=O)(=O)N(C)C)c1
inactive: [1] 99 % of control | [2] 96 % of control

CSCSCC(N)CO (configuration not stated)
inactive: endpoint: mean survival time, dose: 25.0 mg/kg/injection, schedule: Q01DX009 (ip), vehicle: Klucel (hydroxypropylcellulose) (HPC) 102 % of control | endpoint: mean survival time, dose: 50.0 mg/kg/injection, schedule: Q01DX009 (ip), vehicle: Klucel (hydroxypropylcellulose) (HPC) 94 % of control | endpoint: mean survival time, dose: 100.0 mg/kg/injection, schedule: Q01DX009 (ip), vehicle: Klucel (hydroxypropylcellulose) (HPC) 93 % of control | endpoint: mean survival time, dose: 200.0 mg/kg/injection, schedule: Q01DX009 (ip), vehicle: Klucel (hydroxypropylcellulose) (HPC) 96 % of control | endpoint: mean survival time, dose: 400.0 mg/kg/injection, schedule: Q01DX009 (ip), vehicle: Klucel (hydroxypropylcellulose) (HPC) 96 % of control

CCOC(=O)Nc1cc(Cl)c2nnn(C3OC(CO)C(O)C3O)c2n1 (configuration not stated)
inactive: endpoint: mean survival time, dose: 12.5 mg/kg/injection, schedule: Q01DX005 (ip), vehicle: water 90 % of control | endpoint: mean survival time, dose: 25.0 mg/kg/injection, schedule: Q01DX005 (ip), vehicle: water 94 % of control | endpoint: mean survival time, dose: 50.0 mg/kg/injection, schedule: Q01DX005 (ip), vehicle: water 86 % of control | endpoint: mean survival time, dose: 100.0 mg/kg/injection, schedule: Q01DX005 (ip), vehicle: water 96 % of control | endpoint: mean survival time, dose: 200.0 mg/kg/injection, schedule: Q01DX005 (ip), vehicle: water 90 % of control

CCC(CO)[N-]CC[N-]C(CC)CO.[Cl][Pt+2][Cl] (configuration not stated)
inactive: endpoint: median survival time, dose: 6.25 mg/kg/injection, schedule: Q04DX003 (ip), vehicle: saline 101 % of control | endpoint: median survival time, dose: 12.5 mg/kg/injection, schedule: Q04DX003 (ip), vehicle: saline 107 % of control | endpoint: median survival time, dose: 25.0 mg/kg/injection, schedule: Q04DX003 (ip), vehicle: saline 109 % of control | endpoint: median survival time, dose: 50.0 mg/kg/injection, schedule: Q04DX003 (ip), vehicle: saline 121 % of control

N#CC[CH2][Sn]([I])([c]1ccccc1)[c]1ccccc1
inactive: endpoint: mean survival time, dose: 6.25 mg/kg/injection, schedule: Q04DX003 (ip), vehicle: saline with Tween-80 97 % of control | endpoint: mean survival time, dose: 12.5 mg/kg/injection, schedule: Q04DX003 (ip), vehicle: saline with Tween-80 97 % of control

Cn1c(=O)c2c(n(C)c1=O)n1cnnc1n2C
inactive: endpoint: mean survival time, dose: 12.5 mg/kg/injection, schedule: Q01DX005 (ip), vehicle: distilled water + Tween-80 95 % of control | endpoint: mean survival time, dose: 25.0 mg/kg/injection, schedule: Q01DX005 (ip), vehicle: distilled water + Tween-80 100 % of control | endpoint: mean survival time, dose: 50.0 mg/kg/injection, schedule: Q01DX005 (ip), vehicle: distilled water + Tween-80 100 % of control | endpoint: mean survival time, dose: 100.0 mg/kg/injection, schedule: Q01DX005 (ip), vehicle: distilled water + Tween-80 100 % of control | endpoint: mean survival time, dose: 200.0 mg/kg/injection, schedule: Q01DX005 (ip), vehicle: distilled water + Tween-80 89 % of control

CCCCCCCCC(C)C(=O)N1CCCC1C(=O)N1C(CC(=O)CC)CC(C)CC1C(=O)NC(C)C(=O)NC(C)(C)C(=O)NC(C)(C)C(=O)NC(C(=O)NC(C)C(=O)NC(C)(C)C(=O)NC(C)(C)C(=O)NC(C)CN(C)CCO)C(C)CC (configuration not stated) (X1-P[X2]A[Aib][Aib]IA[Aib][Aib]-X3; configuration not given here)
inactive: endpoint: mean survival time, dose: 0.15 mg/kg/injection, schedule: Q01DX009 (ip), vehicle: Klucel (hydroxypropylcellulose) (HPC) 110 % of control | endpoint: mean survival time, dose: 0.31 mg/kg/injection, schedule: Q01DX009 (ip), vehicle: Klucel (hydroxypropylcellulose) (HPC) 111 % of control and 112 % of control | endpoint: mean survival time, dose: 0.62 mg/kg/injection, schedule: Q01DX009 (ip), vehicle: Klucel (hydroxypropylcellulose) (HPC) 115 % of control and 104 % of control | endpoint: mean survival time, dose: 1.25 mg/kg/injection, schedule: Q01DX009 (ip), vehicle: Klucel (hydroxypropylcellulose) (HPC) 122 % of control and 108 % of control | endpoint: mean survival time, dose: 2.5 mg/kg/injection, schedule: Q01DX009 (ip), vehicle: Klucel (hydroxypropylcellulose) (HPC) 115 % of control and 117 % of control | endpoint: mean survival time, dose: 5.0 mg/kg/injection, schedule: Q01DX009 (ip), vehicle: Klucel (hydroxypropylcellulose) (HPC) 103 % of control

c1cnc(NCCSSCCNc2ncccn2)nc1
inactive: [4] 91 % of control | [1] 97 % of control | [5] 89 % of control | [2] 97 % of control | endpoint: mean survival time, dose: 400.0 mg/kg/injection, schedule: Q01DX009 (ip), vehicle: saline with Tween-80 91 % of control | [3] 96 % of control

Nc1ccc(CCc2nc(N)[nH]c(=O)c2-c2ccc(Cl)cc2)cc1
inactive: endpoint: mean survival time, dose: 37.5 mg/kg/injection, schedule: Q01DX001 (ip), vehicle: saline with Tween-80 100 % of control | endpoint: mean survival time, dose: 75.0 mg/kg/injection, schedule: Q01DX001 (ip), vehicle: saline with Tween-80 91 % of control | endpoint: mean survival time, dose: 150.0 mg/kg/injection, schedule: Q01DX001 (ip), vehicle: saline with Tween-80 94 % of control

OC(CCc1ccccc1)(C(F)(F)F)C(F)(F)F
inactive: endpoint: mean survival time, dose: 100.0 mg/kg/injection, schedule: Q04DX003 (ip), vehicle: Klucel (hydroxypropylcellulose) (HPC) 92 % of control | endpoint: mean survival time, dose: 200.0 mg/kg/injection, schedule: Q04DX003 (ip), vehicle: Klucel (hydroxypropylcellulose) (HPC) 95 % of control | endpoint: mean survival time, dose: 400.0 mg/kg/injection, schedule: Q04DX003 (ip), vehicle: Klucel (hydroxypropylcellulose) (HPC) 97 % of control

O=CC(O)C(O)C(O)C(O)CO (configuration not stated)
inactive: endpoint: mean survival time, dose: 100.0 mg/kg/injection, schedule: Q01DX009 (ip), vehicle: saline 93 % of control | endpoint: mean survival time, dose: 200.0 mg/kg/injection, schedule: Q01DX009 (ip), vehicle: saline 91 % of control | endpoint: mean survival time, dose: 0.2 grams/kg/injection, schedule: Q03DX003 (ip), vehicle: water 100 % of control | endpoint: mean survival time, dose: 400.0 mg/kg/injection, schedule: Q01DX009 (ip), vehicle: saline 95 % of control | endpoint: mean survival time, dose: 0.4 grams/kg/injection, schedule: Q03DX003 (ip), vehicle: water 108 % of control | endpoint: mean survival time, dose: 0.8 grams/kg/injection, schedule: Q03DX003 (ip), vehicle: water 107 % of control | endpoint: mean survival time, dose: 1.5 grams/kg/injection, schedule: Q03DX003 (ip), vehicle: water 100 % of control | endpoint: mean survival time, dose: 3.0 grams/kg/injection, schedule: Q03DX003 (ip), vehicle: water 101 % of control | endpoint: mean survival time, dose: 6.0 grams/kg/injection, schedule: Q03DX003 (ip), vehicle: water 100 % of control | endpoint: mean survival time, dose: 12.0 grams/kg/injection, schedule: Q03DX003 (ip), vehicle: water 106 % of control | endpoint: median survival time, dose: 75.0 mg/kg/injection, schedule: Q01DX009 (ip), vehicle: saline 101 % of control | endpoint: median survival time, dose: 150.0 mg/kg/injection, schedule: Q01DX009 (ip), vehicle: saline 101 % of control | endpoint: median survival time, dose: 300.0 mg/kg/injection, schedule: Q01DX009 (ip), vehicle: saline 100 % of control | endpoint: median survival time, dose: 600.0 mg/kg/injection, schedule: Q01DX009 (ip), vehicle: saline 100 % of control | endpoint: median survival time, dose: 1200.0 mg/kg/injection, schedule: Q01DX009 (ip), vehicle: saline 102 % of control

NC(=S)N/N=C/c1nccc2ccccc12
inactive: endpoint: mean survival time, dose: 6.25 mg/kg/injection, schedule: Q01DX010 (oral), vehicle: saline 97 % of control | endpoint: mean survival time, dose: 15.0 mg/kg/injection, schedule: Q01DX006 (iv), vehicle: saline 100 % of control | endpoint: mean survival time, dose: 25.0 mg/kg/injection, schedule: Q01DX009 (sc), vehicle: saline 97 % of control | endpoint: mean survival time, dose: 30.0 mg/kg/injection, schedule: Q01DX006 (iv), vehicle: saline 100 % of control | endpoint: mean survival time, dose: 50.0 mg/kg/injection, schedule: Q01DX001 (sc), vehicle: saline 98 % of control | endpoint: mean survival time, dose: 50.0 mg/kg/injection, schedule: Q01DX009 (sc), vehicle: saline 103 % of control | endpoint: mean survival time, dose: 75.0 mg/kg/injection, schedule: Q01DX009 (ip), vehicle: saline with Tween-80 110 % of control | endpoint: mean survival time, dose: 168.0 mg/kg/injection, schedule: Q01DX Z (ip), vehicle: saline 86 % of control | endpoint: mean survival time, dose: 200.0 mg/kg/injection, schedule: Q01DX001 (sc), vehicle: saline 100 % of control | endpoint: mean survival time, dose: 360.0 mg/kg/injection, schedule: Q01DX001 (ip), vehicle: saline 110 % of control

CCCCCC(/C=C/C1C=CC(=O)C1C/C=C/CCCC(=O)OC)OC(C)=O (configuration not stated)
inactive: [1] 95 % of control | [2] 100 % of control | [3] 95 % of control
